Experimental data: PubChem BioAssay (NCI)
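Compound exposure: 48 hours, 5 concentrations, 96-well plates. Here, GI50 denotes the concentration required for 50% inhibition of growth. At the TGI there is no net growth.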

Columns and labels:
Assay in all cases: inhibition of tumour cell growth, NCI panel, 48 h
HS 578T breast = test system: HS 578T breast
HL-60(TB) leukemia = test system: HL-60(TB) leukemia
A549 NSCLC = test system: A549 NSCLC
786-0 renal = test system: 786-0 renal
NCI-H460 lung = test system: NCI-H460 lung
SF-268 CNS = test system: SF-268 CNS
PC-3 prostate = test system: PC-3 prostate
SNB-75 CNS = test system: SNB-75 CNS
MOLT-4 leukemia = test system: MOLT-4 leukemia
OVCAR-5 ovarian = test system: OVCAR-5 ovarian
BT-549 breast = test system: BT-549 breast
RXF 393 renal = test system: RXF 393 renal
MCF7 breast = test system: MCF7 breast
HCC-2998 colon = test system: HCC-2998 colon
NCI-H23 lung = test system: NCI-H23 lung
COLO 205 colon = test system: COLO 205 colon
HOP-62 NSCLC = test system: HOP-62 NSCLC
UACC-62 melanoma = test system: UACC-62 melanoma
SF-539 CNS = test system: SF-539 CNS
UACC-257 melanoma = test system: UACC-257 melanoma
HT29 colon = test system: HT29 colon
TK-10 renal = test system: TK-10 renal
NCI-H522 lung = test system: NCI-H522 lung
M14 melanoma = test system: M14 melanoma
OVCAR-3 ovarian = test system: OVCAR-3 ovarian
MALME-3M melanoma = test system: MALME-3M melanoma
NCI/ADR-RES ovarian = test system: NCI/ADR-RES ovarian
EKVX NSCLC = test system: EKVX NSCLC
DU-145 prostate = test system: DU-145 prostate
SR leukemia = test system: SR leukemia
SK-OV-3 ovarian = test system: SK-OV-3 ovarian
A498 renal = test system: A498 renal
HCT-116 colon = test system: HCT-116 colon
SK-MEL-5 melanoma = test system: SK-MEL-5 melanoma
RPMI-8226 leukemia = test system: RPMI-8226 leukemia
SK-MEL-2 melanoma = test system: SK-MEL-2 melanoma
SF-295 CNS = test system: SF-295 CNS
UO-31 renal = test system: UO-31 renal
CAKI-1 renal = test system: CAKI-1 renal
HCT-15 colon = test system: HCT-15 colon
SW-620 colon = test system: SW-620 colon
SNB-19 CNS = test system: SNB-19 CNS
KM12 colon = test system: KM12 colon
CCRF-CEM leukemia = test system: CCRF-CEM leukemia
SK-MEL-28 melanoma = test system: SK-MEL-28 melanoma
OVCAR-8 ovarian = test system: OVCAR-8 ovarian
K-562 leukemia = test system: K-562 leukemia
NCI-H226 lung = test system: NCI-H226 lung
ACHN renal = test system: ACHN renal
SN12C renal = test system: SN12C renal
U251 CNS = test system: U251 CNS
IGROV1 ovarian = test system: IGROV1 ovarian
MDA-MB-231 breast = test system: MDA-MB-231 breast
T-47D breast = test system: T-47D breast
MDA-MB-435 = test system: MDA-MB-435
HOP-92 NSCLC = test system: HOP-92 NSCLC
LOX IMVI melanoma = test system: LOX IMVI melanoma
OVCAR-4 ovarian = test system: OVCAR-4 ovarian

N=C(N)c1ccc(-c2ccc(-c3ccc(Cl)c(Cl)c3)o2)cc1 was tested, and the GI50 (HS 578T breast) was 2.1 µM, the TGI (HS 578T breast) was 5.52 µM and the GI50 (HL-60(TB) leukemia) was 1.55 µM. The TGI (HL-60(TB) leukemia) was 4.05 µM.
In the case of COc1c(Br)cc(/C=C(\C#N)c2ccccn2)cc1Br, the TGI (A549 NSCLC) is reported as > 100 µM, the TGI (786-0 renal) is reported as 25.6 µM and the TGI (NCI-H460 lung) is reported as > 100 µM. The TGI (SF-268 CNS) was > 100 µM, the TGI (PC-3 prostate) was > 100 µM and the TGI (SNB-75 CNS) was 17.1 µM. For the same molecule, the TGI (MOLT-4 leukemia) was > 100 µM, the TGI (OVCAR-5 ovarian) was > 100 µM and the TGI (BT-549 breast) was 94.8 µM. For the same molecule, the TGI (RXF 393 renal) was 75.1 µM, the TGI (MCF7 breast) was > 100 µM and the TGI (HCC-2998 colon) was > 100 µM. For the same molecule, the TGI (NCI-H23 lung) was > 100 µM, the TGI (COLO 205 colon) was > 100 µM and the TGI (HOP-62 NSCLC) was 89.1 µM. The TGI (UACC-62 melanoma) was 73.8 µM, the TGI (SF-539 CNS) was > 100 µM and the TGI (UACC-257 melanoma) was > 100 µM. The TGI (HT29 colon) was > 100 µM, the TGI (TK-10 renal) was > 100 µM and the TGI (NCI-H522 lung) was > 100 µM. The TGI (M14 melanoma) was > 100 µM, the TGI (OVCAR-3 ovarian) was > 100 µM and the TGI (MALME-3M melanoma) was > 100 µM. For the same molecule, the TGI (NCI/ADR-RES ovarian) was > 100 µM, the TGI (EKVX NSCLC) was 50.9 µM and the TGI (DU-145 prostate) was > 100 µM. For the same molecule, the TGI (SR leukemia) was > 100 µM, the TGI (SK-OV-3 ovarian) was > 100 µM and the TGI (A498 renal) was 9.57 µM. For the same molecule, the TGI (HCT-116 colon) was > 100 µM, the TGI (SK-MEL-5 melanoma) was > 100 µM and the TGI (RPMI-8226 leukemia) was > 100 µM. The TGI (SK-MEL-2 melanoma) was 41.8 µM, the TGI (SF-295 CNS) was > 100 µM and the TGI (UO-31 renal) was > 100 µM. For the same molecule, the TGI (CAKI-1 renal) was > 100 µM, the TGI (HCT-15 colon) was > 100 µM and the TGI (SW-620 colon) was > 100 µM. The TGI (SNB-19 CNS) was > 100 µM, the TGI (KM12 colon) was > 100 µM and the TGI (CCRF-CEM leukemia) was > 100 µM. The TGI (SK-MEL-28 melanoma) was > 100 µM, the TGI (HL-60(TB) leukemia) was > 100 µM and the TGI (OVCAR-8 ovarian) was > 100 µM. The TGI (K-562 leukemia) was > 100 µM, the TGI (NCI-H226 lung) was > 100 µM and the TGI (ACHN renal) was > 100 µM. For the same molecule, the TGI (SN12C renal) was > 100 µM, the TGI (U251 CNS) was > 100 µM and the TGI (IGROV1 ovarian) was > 100 µM.
With N#Cc1c(N)c(C#N)c2c(c1-c1ccc(Cl)cc1)COc1ccc(F)cc1-2 the GI50 (A549 NSCLC) was 42.6 µM, the TGI (A549 NSCLC) was > 50 µM and the GI50 (786-0 renal) was 20 µM. For the same molecule, the TGI (786-0 renal) was > 50 µM, the GI50 (NCI-H460 lung) was 18.7 µM and the TGI (NCI-H460 lung) was > 50 µM. For the same molecule, the GI50 (PC-3 prostate) was > 50 µM, the TGI (PC-3 prostate) was > 50 µM and the GI50 (SNB-75 CNS) was 25.6 µM. The TGI (SNB-75 CNS) was > 50 µM, the GI50 (MDA-MB-231 breast) was 7.71 µM and the TGI (MDA-MB-231 breast) was 45.7 µM. For the same molecule, the GI50 (MOLT-4 leukemia) was > 50 µM, the TGI (MOLT-4 leukemia) was > 50 µM and the GI50 (OVCAR-5 ovarian) was 48.6 µM. For the same molecule, the TGI (OVCAR-5 ovarian) was > 50 µM, the GI50 (RXF 393 renal) was > 50 µM and the TGI (RXF 393 renal) was > 50 µM. The GI50 (MCF7 breast) was 16.5 µM, the TGI (MCF7 breast) was > 50 µM and the GI50 (T-47D breast) was > 50 µM. For the same molecule, the TGI (T-47D breast) was > 50 µM, the GI50 (MDA-MB-435) was > 50 µM and the TGI (MDA-MB-435) was > 50 µM. The GI50 (NCI-H23 lung) was 7.11 µM, the TGI (NCI-H23 lung) was 39.2 µM and the GI50 (COLO 205 colon) was > 50 µM. For the same molecule, the TGI (COLO 205 colon) was > 50 µM, the GI50 (UACC-62 melanoma) was 46.4 µM and the TGI (UACC-62 melanoma) was > 50 µM. For the same molecule, the GI50 (SF-539 CNS) was 28.2 µM, the TGI (SF-539 CNS) was > 50 µM and the GI50 (UACC-257 melanoma) was > 50 µM. For the same molecule, the TGI (UACC-257 melanoma) was > 50 µM, the GI50 (HT29 colon) was 49.7 µM and the TGI (HT29 colon) was > 50 µM. It also gave a GI50 (TK-10 renal) of 7.63 µM, a TGI (TK-10 renal) of 29.9 µM and a GI50 (NCI-H522 lung) of 2.75 µM. For the same molecule, the TGI (NCI-H522 lung) was 14.5 µM, the GI50 (M14 melanoma) was 16.7 µM and the TGI (M14 melanoma) was > 50 µM. The GI50 (OVCAR-3 ovarian) was 16.2 µM, the TGI (OVCAR-3 ovarian) was > 50 µM and the GI50 (NCI/ADR-RES ovarian) was 30.6 µM. For the same molecule, the TGI (NCI/ADR-RES ovarian) was > 50 µM, the GI50 (EKVX NSCLC) was 12.4 µM and the TGI (EKVX NSCLC) was > 50 µM. The GI50 (DU-145 prostate) was 14.7 µM, the TGI (DU-145 prostate) was > 50 µM and the GI50 (SR leukemia) was > 50 µM. The TGI (SR leukemia) was > 50 µM, the GI50 (SK-OV-3 ovarian) was > 50 µM and the TGI (SK-OV-3 ovarian) was > 50 µM. It also gave a GI50 (A498 renal) of 7.89 µM, a TGI (A498 renal) of 28 µM and a GI50 (SK-MEL-5 melanoma) of 16.4 µM. The TGI (SK-MEL-5 melanoma) was > 50 µM, the GI50 (RPMI-8226 leukemia) was 19 µM and the TGI (RPMI-8226 leukemia) was > 50 µM. For the same molecule, the GI50 (SK-MEL-2 melanoma) was > 50 µM, the TGI (SK-MEL-2 melanoma) was > 50 µM and the GI50 (SF-295 CNS) was 13.5 µM. For the same molecule, the TGI (SF-295 CNS) was > 50 µM, the GI50 (UO-31 renal) was 10.9 µM and the TGI (UO-31 renal) was > 50 µM. For the same molecule, the GI50 (HOP-92 NSCLC) was > 50 µM, the TGI (HOP-92 NSCLC) was > 50 µM and the GI50 (CAKI-1 renal) was 21 µM. The TGI (CAKI-1 renal) was > 50 µM, the GI50 (HCT-15 colon) was 43.8 µM and the TGI (HCT-15 colon) was > 50 µM. The GI50 (SW-620 colon) was 22.5 µM, the TGI (SW-620 colon) was > 50 µM and the GI50 (SNB-19 CNS) was > 50 µM. For the same molecule, the TGI (SNB-19 CNS) was > 50 µM, the GI50 (KM12 colon) was 12.3 µM and the TGI (KM12 colon) was > 50 µM. For the same molecule, the GI50 (CCRF-CEM leukemia) was > 50 µM, the TGI (CCRF-CEM leukemia) was > 50 µM and the GI50 (SK-MEL-28 melanoma) was > 50 µM. For the same molecule, the TGI (SK-MEL-28 melanoma) was > 50 µM, the GI50 (LOX IMVI melanoma) was 43.9 µM and the TGI (LOX IMVI melanoma) was > 50 µM. The GI50 (HL-60(TB) leukemia) was > 50 µM, the TGI (HL-60(TB) leukemia) was > 50 µM and the GI50 (OVCAR-8 ovarian) was > 50 µM. For the same molecule, the TGI (OVCAR-8 ovarian) was > 50 µM, the GI50 (OVCAR-4 ovarian) was > 50 µM and the TGI (OVCAR-4 ovarian) was > 50 µM. For the same molecule, the GI50 (K-562 leukemia) was > 50 µM, the TGI (K-562 leukemia) was > 50 µM and the GI50 (ACHN renal) was 19.7 µM. For the same molecule, the TGI (ACHN renal) was > 50 µM, the GI50 (SN12C renal) was > 50 µM and the TGI (SN12C renal) was > 50 µM. The GI50 (U251 CNS) was 22 µM, the TGI (U251 CNS) was > 50 µM and the GI50 (IGROV1 ovarian) was 6.24 µM. For the same molecule, the TGI (IGROV1 ovarian) was 30.5 µM.
